{"source": "patent US20090217393A1", "about": "“Growth Promoting Agent and Life Prolonging Agent” (B FOOD SCIENCE CO., LTD., priority 2005, published 2009)", "key": {"[1]": {"tested_on": "yeast Saccharomyces cerevisiae", "test": "Yeast culture test", "format": "cell-based", "conditions": "SD medium containing 0.006% by mass of erythritol", "protocol": "A yeast Saccharomyces cerevisiae was cultured in an SD medium containing 0.006% by mass of erythritol (erythritol-added group; the present invention) and in an SD medium containing no erythritol (no-erythritol-added group; control). 27 hours later, absorbances at 660 nm were measured."}, "[2]": {"tested_on": "shiitake", "test": "Mushroom (shiitake) cultivation test", "format": "in vivo", "conditions": "for Number of mushroom with pileus diameter of 5 cm or more: 8 days later, control 2", "protocol": "A shiitake cultivation test was performed using a commercially available shiitake cultivation kit.\nThe cultivation kit is a product produced by hardening wood chips prepared by pulverizing broad-leaved tree, together with a nutritional supplement and a shiitake fungus into a block form. The blocks were separately immersed in aqueous solutions containing 0% by mass (no addition), 0.05% by mass, 0.5% by mass, and 5% by mass of erythritol, and the surfaces of the blocks were washed. Then, the blocks were placed in plastic bags to prevent drying, and the tops of the bags were closed with clothespins, followed by cultivation of the shiitake while adjusting the temperature to 23° C. during the daytime and to 8° C. during the nighttime. Whenever the surfaces of the blocks were dried, the surfaces of the blocks were moisturized using a spray with the aqueous solutions containing erythritol at the above-mentioned each concentration. 3 days later, the shiitake started to germinate on the blocks, and 8 days later, the diameter and number of each pileus of the shiitake were measured."}, "[3]": {"tested_on": "Layers (white Plymouth Rock)", "test": "Layer growth test", "format": "in vivo", "conditions": "feed containing 5% by mass of erythritol", "protocol": "Layers (white Plymouth Rock) were divided into a group fed with a feed containing 5% by mass of erythritol (erythritol-added group; the present invention) and a group fed with a feed containing no erythritol (no-erythritol-added group; control), and bred. The breeding was performed for 24 months, which was generally defined so as to generate economic benefits, and the survival rates were continuously watched. Meanwhile, average body weights (g) were continuously watched for four weeks."}, "[4]": {"tested_on": "Radish sprouts", "test": "Radish sprout cultivation test", "format": "in vivo", "protocol": "Radish sprouts were cultivated in 0.75% agar mediums containing erythritol, mannitol, and sorbitol each at concentrations of 0.05% by mass, 0.1% by mass, and 0.5% by mass as sugar alcohols, and in an agar medium containing no sugar alcohol (0%). 3 and 6 days after germination, the lengths of radish sprouts were measured."}, "[5]": {"tested_on": "Crj:BDF1 mice (male)", "test": "Mouse breeding test", "format": "in vivo", "conditions": "feed containing 5% by mass of erythritol", "from_the_text": "Crj:BDF1 mice (male) were divided into a group fed with a feed containing 5% by mass of erythritol (erythritol-added group; the present invention) and a group fed with a feed containing no erythritol (no-erythritol-added group; control), and bred, followed by investigation of 50% survival times, 75% survival times, average survival times, survival rates, and maximum survival times."}, "[6]": {"tested_on": "Arabidopsis plants", "test": "Arabidopsis plant cultivation test", "format": "in vivo", "conditions": "Murashige & Skoog medium containing 0.06% by mass of erythritol; vs control", "from_the_text": "Arabidopsis plants were separately inoculated into a Murashige & Skoog medium containing 0.06% by mass of erythritol (erythritol-added group; the present invention) and a medium containing no erythritol (no-erythritol-added group; control), followed by comparison of growth of the Arabidopsis plants."}, "[7]": {"conditions": "0.05% by mass sugar alcohol in 0.75% agar medium, After 3 days"}, "[8]": {"conditions": "0.05% by mass sugar alcohol in 0.75% agar medium, After 6 days"}, "[9]": {"conditions": "0.1% by mass sugar alcohol in 0.75% agar medium, After 3 days"}, "[10]": {"conditions": "0.1% by mass sugar alcohol in 0.75% agar medium, After 6 days"}, "[11]": {"conditions": "0.5% by mass sugar alcohol in 0.75% agar medium, After 3 days"}, "[12]": {"conditions": "0.5% by mass sugar alcohol in 0.75% agar medium, After 6 days"}}}
{"smiles": "OC[C@@H](O)[C@@H](O)CO", "note": "[erythritol]", "values": [{"measurement": "yeast proliferation effect", "setting": "[1]", "value": "confirmed"}, {"measurement": "absorbance at 660 nm", "setting": "[1]; 27 hours later, control 2.65", "value": 2.88}, {"measurement": "sizes of the yeast cells larger than control", "setting": "[1]; under a microscope", "value": "about 20%"}, {"measurement": "Number of mushroom with pileus diameter of 5 cm or more", "setting": "[2]; 0.05% by mass erythritol aqueous solution", "value": 8}, {"measurement": "Number of mushroom with pileus diameter of 5 cm or more", "setting": "[2]; 0.5% by mass erythritol aqueous solution", "value": 5}, {"measurement": "Number of mushroom with pileus diameter of 5 cm or more", "setting": "[2]; 5.0% by mass erythritol aqueous solution", "value": 9}, {"measurement": "numbers of mushrooms with a pileus diameter of 5 cm or more compared with control", "setting": "[2]; all the concentrations (0.05, 0.5, 5% by mass)", "value": "significantly increase"}, {"measurement": "survival rate compared with control", "setting": "[3]; breeding for 24 months, FIG. 2", "value": "increased"}, {"measurement": "average body weight compared with control", "setting": "[3]; watched for four weeks, FIG. 3", "value": "increased"}, {"measurement": "Lengths of radish sprouts", "setting": "[4]; [7]", "value": 46, "unit": "mm"}, {"measurement": "Lengths of radish sprouts", "setting": "[4]; [8]", "value": 109, "unit": "mm"}, {"measurement": "length of radish sprouts / growth promoting effect compared with no-sugar-alcohol-added group", "setting": "[4]; 0.05 to 0.5% by mass in agar medium", "value": "particularly excellent growth promoting effects"}, {"measurement": "Lengths of radish sprouts", "setting": "[4]; [9]", "value": 30, "unit": "mm"}, {"measurement": "Lengths of radish sprouts", "setting": "[4]; [10]", "value": 76, "unit": "mm"}, {"measurement": "Lengths of radish sprouts", "setting": "[4]; [11]", "value": 31, "unit": "mm"}, {"measurement": "Lengths of radish sprouts", "setting": "[4]; [12]", "value": 87, "unit": "mm"}, {"measurement": "50% survival time", "setting": "[5]; Crj:BDF1 male mice", "value": 927, "unit": "days"}, {"measurement": "75% survival time", "setting": "[5]; Crj:BDF1 male mice", "value": 850, "unit": "days"}, {"measurement": "Average survival time", "setting": "[5]; Crj:BDF1 male mice", "value": 768, "unit": "days"}, {"measurement": "Maximum survival time", "setting": "[5]; Crj:BDF1 male mice", "value": "1,080 days"}, {"measurement": "50% survival time compared with control", "setting": "[5]; vs no-erythritol-added group", "value": "prolonged"}, {"measurement": "75% survival time compared with control", "setting": "[5]; vs no-erythritol-added group", "value": "prolonged"}, {"measurement": "average survival time compared with control", "setting": "[5]; vs no-erythritol-added group", "value": "prolonged"}, {"measurement": "maximum survival time compared with control", "setting": "[5]; vs no-erythritol-added group", "value": "no significant difference"}, {"measurement": "survival rate compared with control", "setting": "[5]; vs no-erythritol-added group", "value": "prolonged"}, {"measurement": "growth promoting effect on roots and leaves/stems", "setting": "[6]", "value": "confirmed"}]}
{"smiles": "OC[C@@H](O)[C@@H](O)[C@H](O)[C@H](O)CO", "note": "[mannitol]", "values": [{"measurement": "Lengths of radish sprouts", "setting": "[4]; [7]", "value": 15, "unit": "mm"}, {"measurement": "Lengths of radish sprouts", "setting": "[4]; [8]", "value": 59, "unit": "mm"}, {"measurement": "Lengths of radish sprouts", "setting": "[4]; [9]", "value": 29, "unit": "mm"}, {"measurement": "Lengths of radish sprouts", "setting": "[4]; [10]", "value": 61, "unit": "mm"}, {"measurement": "Lengths of radish sprouts", "setting": "[4]; [11]", "value": 24, "unit": "mm"}, {"measurement": "Lengths of radish sprouts", "setting": "[4]; [12]", "value": 55, "unit": "mm"}]}
{"smiles": "OC[C@@H](O)[C@@H](O)[C@H](O)[C@@H](O)CO", "note": "[sorbitol]", "values": [{"measurement": "Lengths of radish sprouts", "setting": "[4]; [7]", "value": 30, "unit": "mm"}, {"measurement": "Lengths of radish sprouts", "setting": "[4]; [8]", "value": 68, "unit": "mm"}, {"measurement": "Lengths of radish sprouts", "setting": "[4]; [9]", "value": 31, "unit": "mm"}, {"measurement": "Lengths of radish sprouts", "setting": "[4]; [10]", "value": 64, "unit": "mm"}, {"measurement": "Lengths of radish sprouts", "setting": "[4]; [11]", "value": 27, "unit": "mm"}, {"measurement": "Lengths of radish sprouts", "setting": "[4]; [12]", "value": 52, "unit": "mm"}]}
